In US20150297672A1, “Alpha- and gamma-MSH analogues” (TXP Pharma GmbH, priority 2014, published 2015):

How the values were obtained:
human MC1r [1] = target: T1, human MC1r (Homo sapiens, UniProt Q01726); assay: Test 3: receptor efficacy, cAMP enzyme immunoassay in stably transfected HEK cells expressing the human MC1r; assay type: cell-based; set-up: expressed in transfected cells; settings: for Emax: HEK293, IBMX present, read-out: maximal efficacy Emax (max efficacy expressed as percent of αMSH); for EC50: IBMX present
Excerpt: The immune modulating effects of melanocortins are mediated through MC1r and/or MC3r stimulation on immune competent cells in tissues, organs and plasma. MC1r and/or MC3r are expressed in immune competent cells including monocytes, macrophages, neutrophils t-cells and dendritic cells. Stimulation of the MCr1 and/or MC3r is associated with attenuation of cytokine production and activation of pro-resolving effects. The binding affinity and the receptor efficacy (alternative expression is potency) of a given melanocortin together, in some embodiments, makes up the overall efficacy of a given compound.
Alternatively MCR1 receptor efficacy was tested in stably transfected HEK cells expressing the human MC1r. Cells were grown in Dulbecco's modified Eagle's medium 1885 supplemented with 10% fetal calf serum, 2 mm glutamine, and 0.01 mg/ml gentamicin. The expression plasmids containing the cDNAs encoding the wild-type or the mutated receptors were expressed after transfection according to the calcium phosphate precipitation method. The cells were kept frozen until the experiments where the cells was grown in RPMI 1640 medium supplemented with 2 mm 1-glutamine adjusted to contain 1.5 g/liter sodium bicarbonate, 4.5 g/liter glucose, 10 mm HEPES, 1.0 mm sodium pyruvate, and 10% fetal bovine serum.
Cells (2.5×10^5 cells per well) were incubated for 15 min at 37° C. in 1 ml of freshly prepared binding buffer supplemented with 5.10-4 M of the non-specific phosphodiesterase inhibitor 3-Isobutyl-1-methylxanthine (IBMX), 40 μg/ml bacitracin, and various concentrations of test compound. After incubation, cells were placed on ice, medium was removed, and cells lysed. Measurement of cAMP in the samples was conducted by use of a commercial cAMP Enzyme Immunoassay kit from Cayman Chemicals (Cat. No 581001). All cAMP concentrations were expressed relative to the total number of cells in the individual samples.

human MC1r [2] = target: T1, human MC1r; assay: Test 2: receptor efficacy, cAMP production (HTRF) in CHO-K1 cells expressing MC1r; settings: nM of cAMP, IBMX 1 mM
Description: CHO-Kl cells expressing either the MC1r or the MC3r grown in media without antibiotic were detached by gentle flushing with PBS-EDTA (5 mM EDTA), recovered by centrifugation and resuspended in assay buffer (KRH: 5 mM KCl, 1.25 mM MgSO4, 124 mM NaCl, 25 mM HEPES, 13.3 mM Glucose, 1.25 mM KH2PO4, 1.45 mM CaC12, 0.5 g/1 BSA).
12 μl of cells were mixed with 12 μl of the test compound at increasing concentrations in 96 wells plates and then incubated 30 min at room temperature. cAMP production was determined after addition of a lysis buffer and 1 hour incubation, by use of competitive immunoassay using cryptate-labeled anti-cAMP and d2-labeled cAMP (HTRF kit from CisBio) with Delta F percentage values calculated according to the manufacturer specification. Dose response curves were performed in parallel with test compounds, and reference compounds.
The HTRF technology is a titration assay based on a competition between labeled cAMP (exogenous) and cAMP produced by the cell after activation of the MCr. The dynamic range of the assay was 3-4 fold meaning that the linear range (which enables conversion from raw data to nM of cAMP) is within that range.
Data is presented as mean values.

[3] = tested on: normal human lung fibroblasts (NHLF); settings: TGFβ1-induced NHLF, at higher doses; U.S. provisional application 61/785,631; cited from earlier work

T1 sequence (Q01726 whole entry): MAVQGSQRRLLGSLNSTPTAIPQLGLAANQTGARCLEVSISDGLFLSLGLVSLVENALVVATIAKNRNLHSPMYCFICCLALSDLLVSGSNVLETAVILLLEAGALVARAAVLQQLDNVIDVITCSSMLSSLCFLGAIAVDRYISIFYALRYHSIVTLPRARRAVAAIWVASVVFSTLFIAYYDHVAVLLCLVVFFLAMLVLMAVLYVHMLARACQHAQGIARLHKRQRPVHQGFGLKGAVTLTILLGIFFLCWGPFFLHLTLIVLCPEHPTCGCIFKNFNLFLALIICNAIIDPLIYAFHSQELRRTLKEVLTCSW

Molecule	Emax (human MC1r [1]) [%]	EC50 (human MC1r [1]) [nM]	maximal efficacy (Emax) (human MC1r [2]) [nM]	effect on ECM collagen [3]
CCCC[C@H](NC(=O)[C@H](CO)NC(=O)[C@H](Cc1ccc(O)cc1)NC(=O)[C@H](CO)NC(=O)[C@H](CCCCN)NC(=O)[C@H](CCCCN)NC(=O)[C@H](CCCCN)NC(=O)[C@H](CCCCN)NC(=O)[C@H](CCCCN)NC(=O)[C@H](CCCCN)NC(C)=O)C(=O)N[C@@H](CCC(=O)O)C(=O)N[C@@H](Cc1c[nH]cn1)C(=O)N[C@H](Cc1ccccc1)C(=O)N[C@@H](CCCNC(=N)N)C(=O)N[C@@H](Cc1c[nH]c2ccccc12)C(=O)NCC(=O)N[C@@H](CCCCN)C(=O)N1CCC[C@H]1C(=O)N[C@H](C(N)=O)C(C)C [Ac(Lys)6-NDP-αMSH, Ac(Lys)6-Ser-Tyr-Ser-Nle Glu-His-(D-Phe)-Arg-Trp-Gly-Lys-Pro-Val-NH2]	62 ± 8	1.35		
CSCC[C@H](NC(=O)[C@H](CO)NC(=O)[C@H](Cc1ccc(O)cc1)NC(=O)[C@H](CO)NC(=O)[C@H](CCCCN)NC(=O)[C@H](CCCCN)NC(=O)[C@H](CCCCN)NC(=O)[C@H](CCCCN)NC(=O)[C@H](CCCCN)NC(=O)[C@H](CCCCN)NC(C)=O)C(=O)N[C@@H](CCC(=O)O)C(=O)N[C@@H](Cc1c[nH]cn1)C(=O)N[C@@H](Cc1ccccc1)C(=O)N[C@@H](CCCNC(=N)N)C(=O)N[C@@H](Cc1c[nH]c2ccccc12)C(=O)NCC(=O)N[C@@H](CCCCN)C(=O)N1CCC[C@H]1C(=O)N[C@H](C(N)=O)C(C)C [Ac(Lys)6-αMSH]	72 ± 5	2.12	~3	
CSCC[C@H](NC(=O)[C@H](CO)NC(=O)[C@H](Cc1ccc(O)cc1)NC(=O)[C@H](CO)NC(=O)[C@H](CCCCNC(=O)[C@H](CCCCN)NC(=O)[C@H](CCCCN)NC(C)=O)NC(C)=O)C(=O)N[C@@H](CCC(=O)O)C(=O)N[C@@H](Cc1c[nH]cn1)C(=O)N[C@@H](Cc1ccccc1)C(=O)N[C@@H](CCCNC(=N)N)C(=O)N[C@@H](Cc1c[nH]c2ccccc12)C(=O)NCC(=O)N[C@@H](CCCCN)C(=O)N1CCC[C@H]1C(=O)N[C@H](C(N)=O)C(C)C [α-MSH analogue #1]			~3	
ACTH: Adrenocorticotropic hormone, the native ligand to the type 2 receptor (MC2r) (SYSMEHFRWGKPVGKKRRPVKVYPNGAEDESAEAFPLEF; Corticotropin; UniProt P01189 138-176, looked up)				statistically significant reduction in ECM collagen
